Data published in patent US20120077852A1, “HYDROXYPYRIDINONES FOR THE LOCAL TREATMENT OF SKIN MICROCIRCULATORY DISORDERS” (priority 2002, published 2012).

What was measured:
[1] = Kow distribution coefficient, partition between water and 1-octanol; assay type: physicochemical; details: distribution coefficient between water and 1-octanol of the hydroxypyridinone HCl addition salt, according Dubbin et al.
Text: A key feature is the hydro-lipophilic property, which basically correlate with its distribution coefficients (“Kow”).

[2] = relative to deferoxamine; cited from earlier work
[3] = Berdoukas et al, Lancet 1993; cited from earlier work
[4] = Kamiyama et al 1981; cited from earlier work

Kow [1] | SMILES | partition coefficient, times that of deferoxamine [2] [times] | cellular uptake versus deferoxamine [3] | lipid peroxidation, hydroxyl radical production, free radical-mediated cell damage [4]
1.78 | CCc1c(O)c(=O)ccn1CC [Example 12, 1,2-diethyl-3-hydroxy-4-pyridinone] |  |  | 
0.17 | Cc1c(O)c(=O)ccn1C [Example 1, 1,2-dimethyl-3-hydroxy-4-pyridinone] | 21 | significantly higher than that of deferoxamine | dramatically decrease
0.63 | CCc1c(O)c(=O)ccn1C [Example 11, 1-methyl-2-ethyl-3-hydroxy-4-pyridinone] |  |  | 
